Assay results as given in ChEMBL document CHEMBL1126412, “RP 70676: A potent systematically available inhibitor of acyl-CoA:cholesterol O-acyl transferase (ACAT)” (Bioorg Med Chem Lett, 1992).
pIC50: −log10 of the molar value.

Assays:
[1] = target: T1, Sterol O-acyltransferase 1 (Rattus norvegicus, UniProt O70536); experiment: Concentration required for the inhibition of cholesterol O-acyl transferase (ACAT) from rat liver
T1 sequence (O70536 whole entry): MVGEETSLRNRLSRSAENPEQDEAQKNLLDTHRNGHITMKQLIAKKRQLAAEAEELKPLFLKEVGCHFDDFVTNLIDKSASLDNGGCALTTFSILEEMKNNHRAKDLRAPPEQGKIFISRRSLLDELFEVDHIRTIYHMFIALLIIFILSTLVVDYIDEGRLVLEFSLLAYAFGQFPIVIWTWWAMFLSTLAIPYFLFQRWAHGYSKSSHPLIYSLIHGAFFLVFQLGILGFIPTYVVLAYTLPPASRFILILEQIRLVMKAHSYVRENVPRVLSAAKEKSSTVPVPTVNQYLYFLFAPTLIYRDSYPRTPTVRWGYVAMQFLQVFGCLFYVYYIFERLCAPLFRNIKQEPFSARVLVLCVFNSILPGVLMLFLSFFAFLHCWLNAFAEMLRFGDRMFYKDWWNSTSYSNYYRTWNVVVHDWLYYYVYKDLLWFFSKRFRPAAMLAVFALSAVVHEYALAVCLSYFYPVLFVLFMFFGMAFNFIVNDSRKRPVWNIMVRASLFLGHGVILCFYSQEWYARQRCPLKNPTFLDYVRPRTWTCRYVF

[2] = target: T2, Acyl-CoA:cholesterol acyltransferase (Oryctolagus cuniculus, UniProt Q95214); experiment: Concentration required for the inhibition of cholesterol O-acyl transferase (ACAT) from cholesterol fed rabbit liver
T2 sequence (Q95214 whole entry): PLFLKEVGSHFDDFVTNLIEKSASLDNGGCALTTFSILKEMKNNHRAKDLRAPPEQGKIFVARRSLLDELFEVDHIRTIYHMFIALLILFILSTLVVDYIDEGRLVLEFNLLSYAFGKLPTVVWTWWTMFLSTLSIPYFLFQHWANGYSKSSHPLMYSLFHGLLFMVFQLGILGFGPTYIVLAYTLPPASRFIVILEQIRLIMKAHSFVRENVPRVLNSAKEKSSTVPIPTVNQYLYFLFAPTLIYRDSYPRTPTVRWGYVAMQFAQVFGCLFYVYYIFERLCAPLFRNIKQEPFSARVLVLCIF

Oryctolagus cuniculus [3] = organism: Oryctolagus cuniculus; experiment: Evaluated for the reduction of plasma cholesterol level in NZW rabbits with 5% cholesterol in diet; AUC; mM.days; assay type: functional
Oryctolagus cuniculus [4] = organism: Oryctolagus cuniculus; experiment: Percent change of cholesterol ester level in thoracic aorta of NZW rabbits form control; assay type: functional
Oryctolagus cuniculus [5] = organism: Oryctolagus cuniculus; experiment: Evaluated for the reduction of plasma cholesterol level in NZW rabbits with 0.25% cholesterol in diet; assay type: functional
Oryctolagus cuniculus [6] = organism: Oryctolagus cuniculus; experiment: Percent change of cholesterol ester level in thoracic aorta of NZW rabbits from control; assay type: functional
Oryctolagus cuniculus [7] = organism: Oryctolagus cuniculus; experiment: Percent change of cholesterol esters level in abdominal aorta of NZW rabbits from control; assay type: functional
Oryctolagus cuniculus [8] = organism: Oryctolagus cuniculus; experiment: Percent change of free cholesterol levels in thoracic aorta of NZW rabbits form control; assay type: functional
Oryctolagus cuniculus [9] = organism: Oryctolagus cuniculus; experiment: Percent change of free cholesterol level in abdominal aorta of NZW rabbits from control; assay type: functional
[10] = target: T3, Sterol O-acyltransferase 1 (Cricetulus griseus, UniProt Q60457); experiment: Concentration required for the inhibition of Cholesterol O-acyl transferase from hamster liver
T3 sequence (Q60457 whole entry): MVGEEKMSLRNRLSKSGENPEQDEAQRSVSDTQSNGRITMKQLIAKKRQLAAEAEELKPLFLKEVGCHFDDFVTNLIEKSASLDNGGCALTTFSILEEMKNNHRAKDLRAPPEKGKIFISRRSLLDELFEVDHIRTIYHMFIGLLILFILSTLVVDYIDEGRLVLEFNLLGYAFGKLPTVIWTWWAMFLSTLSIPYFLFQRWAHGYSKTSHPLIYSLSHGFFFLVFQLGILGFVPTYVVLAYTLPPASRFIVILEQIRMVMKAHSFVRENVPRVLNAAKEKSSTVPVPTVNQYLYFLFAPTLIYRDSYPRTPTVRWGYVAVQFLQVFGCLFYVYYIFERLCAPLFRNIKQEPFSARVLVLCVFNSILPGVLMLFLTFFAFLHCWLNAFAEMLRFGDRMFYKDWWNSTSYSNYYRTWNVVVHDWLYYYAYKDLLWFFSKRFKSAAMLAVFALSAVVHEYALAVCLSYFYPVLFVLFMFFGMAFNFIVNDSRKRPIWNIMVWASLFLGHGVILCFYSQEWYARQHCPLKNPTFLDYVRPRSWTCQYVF

Oryctolagus cuniculus [11] = organism: Oryctolagus cuniculus; experiment: Percent change of cholesterol esters level in abdominal aorta of NZW rabbits form control; assay type: functional
Oryctolagus cuniculus [12] = organism: Oryctolagus cuniculus; experiment: Percent change of free cholesterol levels in thoracic aorta of NZW rabbits from control; assay type: functional
Oryctolagus cuniculus [13] = organism: Oryctolagus cuniculus; experiment: Percent change of plasma cholesterol level in NZW rabbits form control; assay type: functional
Oryctolagus cuniculus [14] = organism: Oryctolagus cuniculus; experiment: Percent change of free cholesterol level in abdominal aorta of NZW rabbits form control; assay type: functional
Oryctolagus cuniculus [15] = organism: Oryctolagus cuniculus; experiment: Percent change of plasma cholesterol level in NZW rabbits from control; assay type: functional

| SMILES | pIC50 [1] | pIC50 [2] | also measured |
| --- | --- | --- | --- |
| Cn1ccnc1S(=O)(=O)CCCSc1nc(-c2ccccc2)c(-c2ccccc2)[nH]1 | 7.96 | 5.10 |  |
| Cn1ccnc1SCCCCSc1nc(-c2ccccc2)c(-c2ccccc2)[nH]1 | 7.42 | 6.74 |  |
| c1ccc(-c2nc(SCCCCCn3cccn3)[nH]c2-c2ccccc2)cc1 | 7.62 | 6.55 |  |
| c1ccc(-c2nc(SCCCCCCn3cccn3)[nH]c2-c2ccccc2)cc1 | 7.32 | 6.23 |  |
| c1ccc(-c2nc(SCCCn3cccn3)[nH]c2-c2ccccc2)cc1 | 7.30 | < 6.00 |  |
| c1ccc(-c2nc(SCCCCCSc3ncc[nH]3)[nH]c2-c2ccccc2)cc1 | 7.36 | 6.06 |  |
| Cc1cc(C)n(CCCCCSc2nc(-c3ccccc3)c(-c3ccccc3)[nH]2)n1 |  |  | AUC (Oryctolagus cuniculus [3]): 1440 mM·days; Change (Oryctolagus cuniculus [4]): <-40%; AUC (Oryctolagus cuniculus [5]): 776 mM·days; Change (Oryctolagus cuniculus [6]): <-42%; Change (Oryctolagus cuniculus [7]): <-40%; Change (Oryctolagus cuniculus [8]): <-44%; Change (Oryctolagus cuniculus [9]): <-27%; pIC50 [10]: 7.92; Change (Oryctolagus cuniculus [11]): <-46%; Change (Oryctolagus cuniculus [12]): <-36%; Change (Oryctolagus cuniculus [13]): <-46%; Change (Oryctolagus cuniculus [14]): <-36%; Change (Oryctolagus cuniculus [15]): <-40% |
| Cn1ccnc1SCCCSc1nc(-c2ccccc2)c(-c2ccccc2)[nH]1 | 7.85 | 6.01 |  |
| CCCCCCCN(CCCCCSc1nc(-c2ccccc2)c(-c2ccccc2)[nH]1)C(=O)Nc1ccc(F)cc1F [LECIMIBIDE] | 8.00 |  |  |
